Source: the kinase profiling compilation of Christmann-Franck et al. (2016)

What was measured:
Assay in all cases: KINOMEscan competition binding
Settings in all cases: compound 10.0 µM
ACVR2A (human) = ACVR2A (human) (UniProt P27037)
BRSK2 (human) = BRSK2 (human) (UniProt Q8IWQ3)
CDC42BPA (human) = CDC42BPA (human) (UniProt Q5VT25)
CDK15 (human) = CDK15 (human) (UniProt Q96Q40)
CDKL2 (human) = CDKL2 (human) (UniProt Q92772)
CSNK1E (human) = CSNK1E (human) (UniProt P49674)
EPHA4 (human) = EPHA4 (human) (UniProt P54764)
FGFR1 (human) = FGFR1 (human) (UniProt P11362)
FGFR4 (human) = FGFR4 (human) (UniProt P22455)
[1] = test system: FLT3 (human), P36888 [D835H]
FYN (human) = FYN (human) (UniProt P06241)
GRK4 (human) = GRK4 (human) (UniProt P32298)
HIPK3 (human) = HIPK3 (human) (UniProt Q9H422)
ITK (human) = ITK (human) (UniProt Q08881)
LYN (human) = LYN (human) (UniProt P07948)
MAP2K6 (human) = MAP2K6 (human) (UniProt P52564)
MAP4K3 (human) = MAP4K3 (human) (UniProt Q8IVH8)
MAP4K4 (human) = MAP4K4 (human) (UniProt O95819)
MAPK8 (human) = MAPK8 (human) (UniProt P45983)
MARK4 (human) = MARK4 (human) (UniProt Q96L34)
MINK1 (human) = MINK1 (human) (UniProt Q8N4C8)
MYO3B (human) = MYO3B (human) (UniProt Q8WXR4)
NEK5 (human) = NEK5 (human) (UniProt Q6P3R8)
PAK1 (human) = PAK1 (human) (UniProt Q13153)
PAK1 (human), sequence (Q13153 whole entry, looked up): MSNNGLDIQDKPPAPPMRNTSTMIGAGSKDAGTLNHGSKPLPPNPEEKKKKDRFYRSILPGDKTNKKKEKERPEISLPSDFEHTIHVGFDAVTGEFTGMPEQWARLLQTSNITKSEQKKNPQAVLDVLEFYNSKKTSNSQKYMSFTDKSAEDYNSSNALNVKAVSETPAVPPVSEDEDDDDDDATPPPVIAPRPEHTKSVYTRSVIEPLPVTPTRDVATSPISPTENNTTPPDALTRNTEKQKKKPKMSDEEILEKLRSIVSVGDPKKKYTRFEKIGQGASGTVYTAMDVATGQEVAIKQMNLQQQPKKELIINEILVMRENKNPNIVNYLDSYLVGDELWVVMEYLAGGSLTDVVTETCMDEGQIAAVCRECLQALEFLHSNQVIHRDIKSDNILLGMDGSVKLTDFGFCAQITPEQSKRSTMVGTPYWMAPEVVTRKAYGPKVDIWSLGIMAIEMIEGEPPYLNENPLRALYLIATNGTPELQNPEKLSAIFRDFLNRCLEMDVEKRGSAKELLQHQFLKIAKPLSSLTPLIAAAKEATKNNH

PKN1 (human) = PKN1 (human) (UniProt Q16512)
PLK4 (human) = PLK4 (human) (UniProt O00444)
PRKACA (human) = PRKACA (human) (UniProt P17612)
PRKACB (human) = PRKACB (human) (UniProt P22694)
PTK2 (human) = PTK2 (human) (UniProt Q05397)
RAF1 (human) = RAF1 (human) (UniProt P04049)
[2] = test system: RET (human), P07949 [V804M]
RIOK3 (human) = RIOK3 (human) (UniProt O14730)
ROS1 (human) = ROS1 (human) (UniProt P08922)
SGK3 (human) = SGK3 (human) (UniProt Q96BR1)
SLK (human) = SLK (human) (UniProt Q9H2G2)
SLK (human), sequence (Q9H2G2 whole entry, looked up): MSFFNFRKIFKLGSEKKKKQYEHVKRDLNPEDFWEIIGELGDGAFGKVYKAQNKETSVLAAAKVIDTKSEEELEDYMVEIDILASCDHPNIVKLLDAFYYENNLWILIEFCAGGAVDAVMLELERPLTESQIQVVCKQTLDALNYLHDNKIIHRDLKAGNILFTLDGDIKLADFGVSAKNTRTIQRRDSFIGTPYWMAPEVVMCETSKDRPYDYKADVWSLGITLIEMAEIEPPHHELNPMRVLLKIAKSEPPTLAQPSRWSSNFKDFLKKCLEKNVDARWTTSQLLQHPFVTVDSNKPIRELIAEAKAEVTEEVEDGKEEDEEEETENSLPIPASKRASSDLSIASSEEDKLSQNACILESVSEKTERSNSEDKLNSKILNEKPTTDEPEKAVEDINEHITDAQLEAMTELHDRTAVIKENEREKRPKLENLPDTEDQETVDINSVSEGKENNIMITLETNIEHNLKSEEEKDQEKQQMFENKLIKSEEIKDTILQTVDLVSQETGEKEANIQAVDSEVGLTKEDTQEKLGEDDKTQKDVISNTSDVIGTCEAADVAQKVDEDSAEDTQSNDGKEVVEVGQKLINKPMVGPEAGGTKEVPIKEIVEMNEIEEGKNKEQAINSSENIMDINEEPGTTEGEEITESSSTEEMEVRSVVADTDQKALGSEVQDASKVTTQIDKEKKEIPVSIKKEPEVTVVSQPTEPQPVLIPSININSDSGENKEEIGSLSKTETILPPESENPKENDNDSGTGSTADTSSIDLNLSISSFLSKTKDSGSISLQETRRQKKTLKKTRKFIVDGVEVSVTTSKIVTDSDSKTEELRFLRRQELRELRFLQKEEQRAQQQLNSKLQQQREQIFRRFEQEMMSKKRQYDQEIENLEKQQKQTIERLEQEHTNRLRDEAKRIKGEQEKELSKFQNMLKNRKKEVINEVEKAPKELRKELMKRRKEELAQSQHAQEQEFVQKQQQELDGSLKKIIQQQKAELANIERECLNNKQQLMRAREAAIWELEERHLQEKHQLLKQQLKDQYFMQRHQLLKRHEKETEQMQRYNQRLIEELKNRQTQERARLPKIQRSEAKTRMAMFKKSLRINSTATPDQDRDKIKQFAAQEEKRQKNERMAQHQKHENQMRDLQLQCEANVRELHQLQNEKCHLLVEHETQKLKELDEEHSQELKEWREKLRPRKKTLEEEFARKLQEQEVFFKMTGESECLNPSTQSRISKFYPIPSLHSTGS

SYK (human) = SYK (human) (UniProt P43405)
TESK1 (human) = TESK1 (human) (UniProt Q15569)
TESK1 (human), sequence (Q15569 whole entry, looked up): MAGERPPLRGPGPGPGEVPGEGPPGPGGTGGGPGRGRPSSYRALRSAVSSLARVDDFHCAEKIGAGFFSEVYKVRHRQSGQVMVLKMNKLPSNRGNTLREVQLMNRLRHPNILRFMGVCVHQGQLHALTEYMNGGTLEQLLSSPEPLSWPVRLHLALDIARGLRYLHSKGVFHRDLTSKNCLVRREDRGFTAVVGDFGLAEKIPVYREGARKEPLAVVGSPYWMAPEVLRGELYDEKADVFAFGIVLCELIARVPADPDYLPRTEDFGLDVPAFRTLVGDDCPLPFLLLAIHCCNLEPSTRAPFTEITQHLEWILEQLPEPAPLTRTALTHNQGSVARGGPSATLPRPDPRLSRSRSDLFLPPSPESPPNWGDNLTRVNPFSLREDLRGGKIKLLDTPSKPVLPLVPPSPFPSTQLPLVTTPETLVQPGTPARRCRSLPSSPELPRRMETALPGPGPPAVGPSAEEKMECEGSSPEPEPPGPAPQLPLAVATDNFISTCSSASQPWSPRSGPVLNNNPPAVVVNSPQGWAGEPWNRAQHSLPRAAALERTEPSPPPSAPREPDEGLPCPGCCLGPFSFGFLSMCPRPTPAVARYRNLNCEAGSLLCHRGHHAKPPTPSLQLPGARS

TNIK (human) = TNIK (human) (UniProt Q9UKE5)
TNK1 (human) = TNK1 (human) (UniProt Q13470)
TXK (human) = TXK (human) (UniProt P42681)
ULK1 (human) = ULK1 (human) (UniProt O75385)

BRSK2 (human), sequence (Q8IWQ3 whole entry, looked up): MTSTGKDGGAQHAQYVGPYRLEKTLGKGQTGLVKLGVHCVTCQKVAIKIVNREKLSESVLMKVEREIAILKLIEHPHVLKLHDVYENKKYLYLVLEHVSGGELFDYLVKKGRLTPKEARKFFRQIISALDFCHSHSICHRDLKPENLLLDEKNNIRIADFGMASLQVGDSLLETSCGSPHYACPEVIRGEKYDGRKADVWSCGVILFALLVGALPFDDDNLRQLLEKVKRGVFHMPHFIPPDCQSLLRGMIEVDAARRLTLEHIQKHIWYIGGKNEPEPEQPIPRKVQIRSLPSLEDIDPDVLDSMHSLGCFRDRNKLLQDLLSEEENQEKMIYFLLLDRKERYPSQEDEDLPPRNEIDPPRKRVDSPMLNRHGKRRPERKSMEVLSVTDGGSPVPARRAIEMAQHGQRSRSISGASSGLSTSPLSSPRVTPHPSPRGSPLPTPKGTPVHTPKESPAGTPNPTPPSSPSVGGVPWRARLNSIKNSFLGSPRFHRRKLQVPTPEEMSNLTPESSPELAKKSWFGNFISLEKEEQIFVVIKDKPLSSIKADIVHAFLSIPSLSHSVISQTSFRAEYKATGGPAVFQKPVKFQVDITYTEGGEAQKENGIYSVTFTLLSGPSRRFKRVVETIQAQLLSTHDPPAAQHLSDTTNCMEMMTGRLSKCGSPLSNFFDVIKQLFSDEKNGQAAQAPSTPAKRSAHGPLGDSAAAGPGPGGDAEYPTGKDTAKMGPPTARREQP
CDC42BPA (human), sequence (Q5VT25 whole entry, looked up): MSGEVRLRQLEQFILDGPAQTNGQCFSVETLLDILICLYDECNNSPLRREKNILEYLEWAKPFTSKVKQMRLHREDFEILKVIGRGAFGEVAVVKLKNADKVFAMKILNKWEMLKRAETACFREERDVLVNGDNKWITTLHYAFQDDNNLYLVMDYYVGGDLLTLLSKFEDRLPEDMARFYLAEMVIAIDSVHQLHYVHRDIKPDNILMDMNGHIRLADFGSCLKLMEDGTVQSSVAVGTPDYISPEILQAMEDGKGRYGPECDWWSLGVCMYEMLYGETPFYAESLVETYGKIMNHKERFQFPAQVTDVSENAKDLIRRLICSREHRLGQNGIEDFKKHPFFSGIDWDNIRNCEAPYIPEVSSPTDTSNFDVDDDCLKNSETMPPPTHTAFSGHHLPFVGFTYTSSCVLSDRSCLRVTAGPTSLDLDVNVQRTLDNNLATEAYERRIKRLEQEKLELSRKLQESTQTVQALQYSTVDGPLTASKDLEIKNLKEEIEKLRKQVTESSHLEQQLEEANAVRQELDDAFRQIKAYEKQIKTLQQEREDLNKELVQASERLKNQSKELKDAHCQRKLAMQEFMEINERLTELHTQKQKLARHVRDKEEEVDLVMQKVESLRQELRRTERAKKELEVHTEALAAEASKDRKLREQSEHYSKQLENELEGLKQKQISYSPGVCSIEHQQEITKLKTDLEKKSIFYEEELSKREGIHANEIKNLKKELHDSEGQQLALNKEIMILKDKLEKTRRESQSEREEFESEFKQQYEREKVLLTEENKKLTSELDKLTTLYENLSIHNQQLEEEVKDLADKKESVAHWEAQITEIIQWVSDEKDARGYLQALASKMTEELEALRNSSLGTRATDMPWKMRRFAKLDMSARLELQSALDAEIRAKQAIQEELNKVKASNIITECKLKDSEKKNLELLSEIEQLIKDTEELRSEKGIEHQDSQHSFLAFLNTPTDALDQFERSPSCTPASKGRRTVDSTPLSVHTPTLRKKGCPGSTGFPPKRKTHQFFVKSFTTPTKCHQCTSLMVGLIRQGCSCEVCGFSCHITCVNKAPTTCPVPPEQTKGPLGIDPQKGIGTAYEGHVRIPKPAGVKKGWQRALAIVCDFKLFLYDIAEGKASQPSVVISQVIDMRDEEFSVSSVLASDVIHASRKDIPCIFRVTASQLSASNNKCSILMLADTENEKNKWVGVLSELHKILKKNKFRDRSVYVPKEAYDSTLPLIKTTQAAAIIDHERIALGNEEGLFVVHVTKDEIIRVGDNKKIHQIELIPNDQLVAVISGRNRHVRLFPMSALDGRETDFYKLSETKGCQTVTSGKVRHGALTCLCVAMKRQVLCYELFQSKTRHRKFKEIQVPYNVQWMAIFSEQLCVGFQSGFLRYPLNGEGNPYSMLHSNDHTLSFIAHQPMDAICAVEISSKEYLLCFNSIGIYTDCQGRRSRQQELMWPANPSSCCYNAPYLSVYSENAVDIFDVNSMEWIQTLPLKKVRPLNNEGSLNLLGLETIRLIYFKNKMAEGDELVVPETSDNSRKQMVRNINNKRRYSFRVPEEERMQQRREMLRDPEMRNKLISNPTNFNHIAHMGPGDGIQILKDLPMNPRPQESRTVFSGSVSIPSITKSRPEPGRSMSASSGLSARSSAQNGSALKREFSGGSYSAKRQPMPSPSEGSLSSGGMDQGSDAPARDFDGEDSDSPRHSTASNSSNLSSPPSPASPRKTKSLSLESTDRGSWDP

## O=c1cc(N2CCOCC2)oc2c(-c3cccc4c3sc3ccccc34)cccc12
ACVR2A (human)
  kinase still bound, per cent of control: 96%
BRSK2 (human)
  kinase still bound, per cent of control: 100%
CDC42BPA (human)
  kinase still bound, per cent of control: 94%
CDK15 (human)
  kinase still bound, per cent of control: 85%
CDKL2 (human)
  kinase still bound, per cent of control: 96%
CSNK1E (human)
  kinase still bound, per cent of control: 76%
EPHA4 (human)
  kinase still bound, per cent of control: 82%
FGFR1 (human)
  kinase still bound, per cent of control: 93%
FGFR4 (human)
  kinase still bound, per cent of control: 99%
[1]
  kinase still bound, per cent of control: 92%
FYN (human)
  kinase still bound, per cent of control: 100%
GRK4 (human)
  kinase still bound, per cent of control: 100%
HIPK3 (human)
  kinase still bound, per cent of control: 92%
ITK (human)
  kinase still bound, per cent of control: 100%
LYN (human)
  kinase still bound, per cent of control: 95%
MAP2K6 (human)
  kinase still bound, per cent of control: 73%
MAP4K3 (human)
  kinase still bound, per cent of control: 76%
MAP4K4 (human)
  kinase still bound, per cent of control: 100%
MAPK8 (human)
  kinase still bound, per cent of control: 88%
MARK4 (human)
  kinase still bound, per cent of control: 100%
MINK1 (human)
  kinase still bound, per cent of control: 100%
MYO3B (human)
  kinase still bound, per cent of control: 100%
NEK5 (human)
  kinase still bound, per cent of control: 100%
PAK1 (human)
  kinase still bound, per cent of control: 71%
PKN1 (human)
  kinase still bound, per cent of control: 100%
PLK4 (human)
  kinase still bound, per cent of control: 90%
PRKACA (human)
  kinase still bound, per cent of control: 87%
PRKACB (human)
  kinase still bound, per cent of control: 92%
PTK2 (human)
  kinase still bound, per cent of control: 70%
RAF1 (human)
  kinase still bound, per cent of control: 97%
[2]
  kinase still bound, per cent of control: 95%
RIOK3 (human)
  kinase still bound, per cent of control: 100%
ROS1 (human)
  kinase still bound, per cent of control: 90%
SGK3 (human)
  kinase still bound, per cent of control: 100%
SLK (human)
  kinase still bound, per cent of control: 100%
SYK (human)
  kinase still bound, per cent of control: 100%
TESK1 (human)
  kinase still bound, per cent of control: 72%
TNIK (human)
  kinase still bound, per cent of control: 100%
TNK1 (human)
  kinase still bound, per cent of control: 100%
TXK (human)
  kinase still bound, per cent of control: 91%
ULK1 (human)
  kinase still bound, per cent of control: 41%

## CCN1CCN(C(=O)Cc2ccc(Nc3ncc(F)c(Nc4ccc(C(=O)Nc5ccccc5Cl)cc4)n3)cc2)CC1
ACVR2A (human)
  kinase still bound, per cent of control: 2.2%
BRSK2 (human)
  kinase still bound, per cent of control: 82%
CDC42BPA (human)
  kinase still bound, per cent of control: 100%
CDK15 (human)
  kinase still bound, per cent of control: 64%
CDKL2 (human)
  kinase still bound, per cent of control: 24%
CSNK1E (human)
  kinase still bound, per cent of control: 100%
EPHA4 (human)
  kinase still bound, per cent of control: 83%
FGFR1 (human)
  kinase still bound, per cent of control: 14%
FGFR4 (human)
  kinase still bound, per cent of control: 71%
[1]
  kinase still bound, per cent of control: 0.6%
FYN (human)
  kinase still bound, per cent of control: 41%
GRK4 (human)
  kinase still bound, per cent of control: 8.8%
HIPK3 (human)
  kinase still bound, per cent of control: 12%
ITK (human)
  kinase still bound, per cent of control: 52%
LYN (human)
  kinase still bound, per cent of control: 46%
MAP2K6 (human)
  kinase still bound, per cent of control: 44%
MAP4K3 (human)
  kinase still bound, per cent of control: 42%
MAP4K4 (human)
  kinase still bound, per cent of control: 69%
MAPK8 (human)
  kinase still bound, per cent of control: 1.7%
MARK4 (human)
  kinase still bound, per cent of control: 17%
MINK1 (human)
  kinase still bound, per cent of control: 57%
MYO3B (human)
  kinase still bound, per cent of control: 100%
NEK5 (human)
  kinase still bound, per cent of control: 7.9%
PAK1 (human)
  kinase still bound, per cent of control: 53%
PKN1 (human)
  kinase still bound, per cent of control: 56%
PLK4 (human)
  kinase still bound, per cent of control: 0.25%
PRKACA (human)
  kinase still bound, per cent of control: 42%
PRKACB (human)
  kinase still bound, per cent of control: 76%
PTK2 (human)
  kinase still bound, per cent of control: 28%
RAF1 (human)
  kinase still bound, per cent of control: 81%
[2]
  kinase still bound, per cent of control: 4.6%
RIOK3 (human)
  kinase still bound, per cent of control: 0.2%
ROS1 (human)
  kinase still bound, per cent of control: 34%
SGK3 (human)
  kinase still bound, per cent of control: 100%
SLK (human)
  kinase still bound, per cent of control: 0.2%
SYK (human)
  kinase still bound, per cent of control: 33%
TESK1 (human)
  kinase still bound, per cent of control: 44%
TNIK (human)
  kinase still bound, per cent of control: 45%
TNK1 (human)
  kinase still bound, per cent of control: 1.3%
TXK (human)
  kinase still bound, per cent of control: 2.2%
ULK1 (human)
  kinase still bound, per cent of control: 28%

## COc1cc2ncnc(-n3nc(-c4ccccn4)nc3N)c2cc1OC
ACVR2A (human)
  kinase still bound, per cent of control: 66%
BRSK2 (human)
  kinase still bound, per cent of control: 14%
CDC42BPA (human)
  kinase still bound, per cent of control: 99%
CDK15 (human)
  kinase still bound, per cent of control: 88%
CDKL2 (human)
  kinase still bound, per cent of control: 2%
CSNK1E (human)
  kinase still bound, per cent of control: 1.6%
EPHA4 (human)
  kinase still bound, per cent of control: 34%
FGFR1 (human)
  kinase still bound, per cent of control: 65%
FGFR4 (human)
  kinase still bound, per cent of control: 96%
[1]
  kinase still bound, per cent of control: 3.2%
FYN (human)
  kinase still bound, per cent of control: 25%
GRK4 (human)
  kinase still bound, per cent of control: 39%
HIPK3 (human)
  kinase still bound, per cent of control: 0%
ITK (human)
  kinase still bound, per cent of control: 100%
LYN (human)
  kinase still bound, per cent of control: 48%
MAP2K6 (human)
  kinase still bound, per cent of control: 46%
MAP4K3 (human)
  kinase still bound, per cent of control: 53%
MAP4K4 (human)
  kinase still bound, per cent of control: 69%
MAPK8 (human)
  kinase still bound, per cent of control: 12%
MARK4 (human)
  kinase still bound, per cent of control: 75%
MINK1 (human)
  kinase still bound, per cent of control: 40%
MYO3B (human)
  kinase still bound, per cent of control: 100%
NEK5 (human)
  kinase still bound, per cent of control: 26%
PAK1 (human)
  kinase still bound, per cent of control: 70%
PKN1 (human)
  kinase still bound, per cent of control: 100%
PLK4 (human)
  kinase still bound, per cent of control: 0.2%
PRKACA (human)
  kinase still bound, per cent of control: 100%
PRKACB (human)
  kinase still bound, per cent of control: 100%
PTK2 (human)
  kinase still bound, per cent of control: 80%
RAF1 (human)
  kinase still bound, per cent of control: 59%
[2]
  kinase still bound, per cent of control: 66%
RIOK3 (human)
  kinase still bound, per cent of control: 32%
ROS1 (human)
  kinase still bound, per cent of control: 25%
SGK3 (human)
  kinase still bound, per cent of control: 74%
SLK (human)
  kinase still bound, per cent of control: 28%
SYK (human)
  kinase still bound, per cent of control: 24%
TESK1 (human)
  kinase still bound, per cent of control: 100%
TNIK (human)
  kinase still bound, per cent of control: 40%
TNK1 (human)
  kinase still bound, per cent of control: 11%
TXK (human)
  kinase still bound, per cent of control: 43%
ULK1 (human)
  kinase still bound, per cent of control: 6.6%
